Measured values: publication PMC10341658, “In Silico Screening and Anticancer-Apoptotic Evaluation of Newly Synthesized Thienopyrimidine/Sulfonamide Hybrids” (International Journal of Molecular Sciences, 2023)

Assays:
FGFR-1 = target: T1, FGFR-1 (Homo sapiens, UniProt P11362); assay: FGFR-1 inhibitory activity (FGFR-1 ELISA Kit, MDA-MB-231 cell lysates); assay type: biochemical
T1 construct: host or cells: MDA-MB-231
Description: To determine basal FGFR-1 activity, a FGFR-1 ELISA Kit was used according to the protocol of the manufacturer (G-Biosciences, Saint Louis, MO, USA). […] After 90 min of incubation at 37 °C, 100 μL Biotinylated Detection Antibody was added and incubated for 60 min. After washing twice each with washing buffer, 100 μL ELISA Detection Reagent was added to each well and incubated for 30 min. After washing, 90 μL of Detection Substrate (TMB) was added to visualize the enzymatic reaction. TMB was catalyzed to produce a blue color that changed into yellow after adding 50 μL of acidic stop solution. The density of yellow is directly proportional to the concentration of FGFR-1 captured on the plate using a Varioskan TM LUX multimode microplate reader (Thermo Scientific, Waltham, MA, USA).

MCF-7 = assay: MTT anti-proliferative assay, MCF-7; assay type: cell-based, human; conditions: for IC50: 72 h of exposure, MTT, mean ± S.D. of three observations; for selectivity index (SI) MCF-7: IC50 MCF 10A/IC50 MCF-7, 72 h of exposure
Description: (§1) The cytotoxic effect of the synthesized compounds was estimated against human breast cancer cell lines (MCF-7 and MDA-MB231).
(§2) MTT (3-[4,5-dimethylthiazol-2-yl]-2,5 diphenyltetrazolium bromide) assay was used to study the anticancer activity of all derivatives against breast cancer cells MCF-7and MDAMB231 (obtained from ATCC, Manassas, VA, USA). […] Briefly, cells plated onto 96-well plates (5000 cells/well) were allowed to adhere and form a semi-confluent monolayer. After 24 h, the cells were treated with different concentrations of derivatives (0–100 µM) for 72 h. After the exposure, cytotoxicity was assessed following the MTT Assay Kit protocol (Abcam, Cambridge, UK) as reported earlier.

[1] = test system: MCF-10A (Non-Tumorigenic Cells); assay: MTT cytotoxicity on non-tumorigenic MCF-10A cells; assay type: cell-based; conditions: Homo sapiens, 72 h of exposure, mean ± S.D. of three observations
Description: as §2, with “After 24 h, the cells were treated with different concentrations of derivatives (0–100 µM) for 72 h.” left out
The selectivity ratio in non-cancerous cells (MCF10A) versus cancer cells (MCF-7 and MDAmb231) was calculated as reported in [26, 27] using the following equation: SI = IC50 of normal cells/IC50 of cancer cells.

MDA-MB-231 = assay: MTT anti-proliferative assay, MDA-MB-231; assay type: cell-based, human; conditions: for IC50: Homo sapiens, MDA-MB-231, 72 h of exposure, MTT, mean ± S.D. of three observations; for selectivity index (SI) MDA-MB231: IC50 MCF 10A/IC50 MDA-MB231, 72 h of exposure
Description: as §1, §2

Caspase-3 = Caspase-3 colorimetric activity assay (Ac-DEVD-pNA) in MDA-MB-231 cells; assay type: cell-based, human; conditions: predetermined IC50 of compound, 24 h
Description: To further explore the cytotoxicity of the prepared hybrids, their influence on Caspase-3 activity was examined. MDA-MB-231 cells were incubated with the predetermined IC50s of tested compounds for a duration of 24 h.
Caspase-3 activity was assessed with a colorimetric assay based on the hydrolysis of acetyl–Asp–Glu–Val–Asp p-nitroanilide (Ac-DEVD-pNA) by Caspase-3 and releasing p-nitroaniline (pNA). MDA-MB-231 cell lysates (100 ng/mL) were diluted and subjected to analysis via Caspase-3 Colorimetric Assay Kit (Sigma-Aldrich, Saint Louis, MO, USA) based on the protocol of the manufacturer. The reaction for color development was held at 37 °C for 2 h, and the value of OD405 was determined using a Varioskan TM LUX multimode microplate reader (Thermo Scientific, Waltham, MA, USA). Each caspase-3 activity was expressed as a value of OD405.

MDA-MB-231 cells = assay: Annexin V-FITC/PI flow cytometric apoptosis analysis; assay type: cell-based, human; conditions: MDA-MB-231, Annexin V-FITC/PI, predetermined IC50
Description: Apoptosis and necrosis are two routes that make up the overall division of the cell death pathway carried out by anticancer agents. A double labeling flow cytometry assay using Annexin V-FITC/propidium iodide was performed to identify which mechanism, necrosis, or apoptosis is responsible for cell death.
Apoptosis was detected after 48 h of cell culture using V-FITC apoptosis detection kit (BD Pharmingen TM, Franklin Lakes, NJ, USA). […] After treatment, cells were collected, washed with ice-cold PBS and centrifuged at 200× g for 5 min. The cell pellet was suspended in 200 μL of annexin V-FITC/PI solution for 15 min in the dark. The stained and Annexine V propidium iodide negative cells were evaluated via CytoFLEX flow cytometry (Beckman Coulter, Brea, CA, USA). Ten thousand cells (gated events) were captured for each sample. The mean fluorescence intensity was analyzed with Cytoexpert (Beckman Coulter).

T1 sequence (P11362 22-822): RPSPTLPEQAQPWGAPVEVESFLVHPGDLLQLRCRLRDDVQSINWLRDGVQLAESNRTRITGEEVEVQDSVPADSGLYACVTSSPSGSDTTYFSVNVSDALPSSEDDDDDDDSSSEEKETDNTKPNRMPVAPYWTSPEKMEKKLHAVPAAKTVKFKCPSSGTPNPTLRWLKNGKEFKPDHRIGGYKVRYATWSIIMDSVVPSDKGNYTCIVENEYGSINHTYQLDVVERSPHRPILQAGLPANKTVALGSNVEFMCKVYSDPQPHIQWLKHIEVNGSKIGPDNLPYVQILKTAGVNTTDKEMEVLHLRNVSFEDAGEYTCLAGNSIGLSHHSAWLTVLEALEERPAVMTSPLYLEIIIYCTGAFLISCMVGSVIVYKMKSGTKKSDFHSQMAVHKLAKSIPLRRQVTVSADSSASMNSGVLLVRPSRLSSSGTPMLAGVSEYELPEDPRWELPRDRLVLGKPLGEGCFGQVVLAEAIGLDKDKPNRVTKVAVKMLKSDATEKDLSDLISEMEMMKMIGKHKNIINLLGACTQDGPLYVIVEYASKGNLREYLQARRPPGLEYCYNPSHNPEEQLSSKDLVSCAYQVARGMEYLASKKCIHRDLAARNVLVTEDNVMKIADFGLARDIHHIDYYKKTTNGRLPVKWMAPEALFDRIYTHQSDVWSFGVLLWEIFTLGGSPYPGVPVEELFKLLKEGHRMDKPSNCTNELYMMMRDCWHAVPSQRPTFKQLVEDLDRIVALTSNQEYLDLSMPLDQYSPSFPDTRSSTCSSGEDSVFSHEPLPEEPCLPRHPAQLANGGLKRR

SMILES: Cc1cc(NS(=O)(=O)c2ccc(Nc3ncnc4sc5c(c34)CCCC5)cc2)no1 [Compound 4aiii, N-(5-methylisoxazol-3-yl)-4-((5,6,7,8-tetrahydrobenzo[4,5]thieno[2,3-d]pyrimidin-4-yl)amino)benzenesulfonamide]
- IC50 (FGFR-1): 159 ± 5.3 µM
- IC50 (MCF-7; Homo sapiens, MCF7, 72 h): 67.1 ± 15.7 µM
- selectivity index (SI) MCF-7 (MCF-7): 1.32
- IC50 [1]: 88.5 ± 10.1 µM
- IC50 (MDA-MB-231): 68.3 ± 4.6 µM
- selectivity index (SI) MDA-MB231 (MDA-MB-231): 1.29

SMILES: O=S(=O)(Nc1ncccn1)c1ccc(Nc2ncnc3sc4c(c23)CCCC4)cc1 [Compound 4aii, N-(pyrimidin-2-yl)-4-((5,6,7,8-tetrahydrobenzo[4,5]thieno[2,3-d]pyrimidin-4-yl)amino)benzenesulfonamide]
- IC50 (FGFR-1): 119 ± 5.6 µM
- IC50 (MCF-7; Homo sapiens, MCF7, 72 h): 22.3 ± 3.1 µM
- IC50 [1]: > 1000 µM
- IC50 (MDA-MB-231): 20.2 ± 1.5 µM

SMILES: N=C(N)NS(=O)(=O)c1ccc(Nc2ncnc3sc4c(c23)CCCC4)cc1 [Compound 4ai, N-carbamimidoyl-4-((5,6,7,8-tetrahydrobenzo[4,5]thieno[2,3-d]pyrimidin-4-yl)amino) benzenesulfonamide]
- IC50 (FGFR-1): 132 ± 4.3 µM
- IC50 (MCF-7; Homo sapiens, MCF7, 72 h): 35.8 ± 1.2 µM
- selectivity index (SI) MCF-7 (MCF-7): 12.79
- IC50 [1]: 458 ± 12.3 µM
- IC50 (MDA-MB-231): 40.2 ± 2.7 µM
- selectivity index (SI) MDA-MB231 (MDA-MB-231): 11.40

SMILES: CCOC(=O)c1sc2ncnc(Cl)c2c1C [Compound 3b]
- Caspase-3 activity fold change vs control cells (Caspase-3): 2.3 fold
- IC50 (FGFR-1): 179 ± 5.6 µM
- IC50 (MCF-7): 9.74 ± 0.13 µM
- IC50 (MCF-7; Homo sapiens, MCF7, 72 h): < 10 µM
- selectivity index (SI) MCF-7 (MCF-7): 27.20
- increase of population of late apoptotic cells (MDA-MB-231 cells): 4.8 fold
- increase of population of necrotic cells (MDA-MB-231 cells): 5.5 fold
- IC50 [1]: 265 ± 4.2 µM
- IC50 (MDA-MB-231): 4.45 ± 0.31 µM
- selectivity index (SI) MDA-MB231 (MDA-MB-231): 59.45

SMILES: CCOC(=O)c1sc2ncnc(Nc3ccc(S(=O)(=O)Nc4ncccn4)cc3)c2c1C [Compound 4bii, Ethyl-5-methyl-4-((4-(N-(pyrimidin-2-yl)sulfamoyl)phenyl)amino)thieno[2,3-d]pyrimidine-6-carboxylate]
- IC50 (FGFR-1): 289 ± 12 µM
- IC50 (MCF-7; Homo sapiens, MCF7, 72 h): 14 ± 8.2 µM
- selectivity index (SI) MCF-7 (MCF-7): 16.45
- IC50 [1]: 230 ± 24.1 µM
- IC50 (MDA-MB-231): 15.57 ± 0.1 µM
- selectivity index (SI) MDA-MB231 (MDA-MB-231): 14.77

SMILES: CCOC(=O)c1sc2ncnc(Nc3ccc(S(=O)(=O)NC(=N)N)cc3)c2c1C [Compound 4bi, Ethyl-4-((4-(N-carbamimidoylsulfamoyl)phenyl)amino)-5-methylthieno[2,3-d]pyrimidine-6-carboxylate]
- IC50 (FGFR-1): 326 ± 7.4 µM
- IC50 (MCF-7): 6.17 ± 1.3 µM
- IC50 (MCF-7; Homo sapiens, MCF7, 72 h): < 10 µM
- selectivity index (SI) MCF-7 (MCF-7): 44.86
- IC50 [1]: 277 ± 7.9 µM
- IC50 (MDA-MB-231): 8.68 ± 4.3 µM
- selectivity index (SI) MDA-MB231 (MDA-MB-231): 31.90

SMILES: COc1cccc2c1C(=O)c1c(O)c3c(c(O)c1C2=O)C[C@@](O)(C(=O)CO)C[C@@H]3O[C@H]1C[C@H](N)[C@H](O)[C@H](C)O1 [Doxorubicin, reference compound]
- IC50 (MCF-7; Homo sapiens, MCF7, 72 h): 1.6 ± 2.2 µM
- IC50 (MDA-MB-231): 2.2 ± 0.3 µM

SMILES: CCOC(=O)c1sc2ncnc(Nc3ccc(S(=O)(=O)Nc4cc(C)on4)cc3)c2c1C [Compound 4biii, Ethyl-5-methyl-4-((4-(N-(5-methylisoxazol-3-yl)sulfamoyl)phenyl)amino) thieno[2,3-d]pyrimidine-6-carboxylate]
- IC50 (FGFR-1): 168 ± 8.3 µM
- IC50 (MCF-7): 9.54 ± 3.1 µM
- IC50 (MCF-7; Homo sapiens, MCF7, 72 h): < 10 µM
- selectivity index (SI) MCF-7 (MCF-7): 25.62
- IC50 [1]: 244.5 ± 1.9 µM
- IC50 (MDA-MB-231): 17.6 ± 2.3 µM
- selectivity index (SI) MDA-MB231 (MDA-MB-231): 13.86
